Experimental data taken from patent US9938262B2, “Benzamides” (Merck Patent GmbH, priority 2011, dated 2018).

Molecular target: T1, FSHR (Homo sapiens, UniProt P23945)
T1 construct: expressed in transfected cells; host or cells: CHO (Cho-FSHR-LUC-1-1-43)
Assay: EC50 of cyclic AMP production in CHO FSHR cells + EC20 FSH (Assay A)
Format: cell-based
Details: Table 1; for EC50: CHO FSHR cells + EC20 FSH, read-out: Assay A EC50 of cyclic AMP production; for activation at 5 µM: 1 h, effect relative to maximum response of the FSH standard
Procedure: Example 10: EC50 of Cyclic AMP Production in CHO FSHR Cells+EC20 FSH (Assay A)
2500 Cho-FSHR-LUC-1-1-43 cells were plated per well in 5 μl of phenol red free DMEM/F12+1% FBS. Cells were plated in 384 well, solid white low volume plates (Greiner 784075) by Multidrop. Cells were assayed by adding 100 μl of 2×EC20 FSH/IBMX in DMEM/F12+0.1% BSA) by Multidrop to 2 μl of test compound stamped in 384 well plates (compounds are diluted 1:50). The final FSH concentration was […], and the final IBMX concentration was 200 μM. The compound plate map was as follows: Column 1: 2 μl of DMSO; Column 2: 2 μl of DMSO; Columns 3-12 and 13-24: 2 μl of test compound, diluted 1:4 in 100% DMSO, or 2 μl of FSH, diluted 1:4 in DMEM/F12+0.1% BSA. The starting concentration for FSH was 50 nM (final concentration was 0.5 nM). […] 5 μl of compound+EC20 FSH mixture were transferred to cell plates (1:2 dilution into 5 μl of cell media) The plates were incubated at 37° C. for 1 h. 10 μl of mixed HTRF (CisBio #62AM4PEC) reagents were added per well and incubated at room temperature for 1 h. The plates were read on Envision using the cAMP HTRF—low volume 384 well protocol. The readout was the calculated fluorescence ratio (665 nm/620 nm). Values given in percent (%) indicate the percental effect (response) at a certain concentration of agonist relative to the maximum response of the FSH standard.

T1 sequence (P23945 18-695): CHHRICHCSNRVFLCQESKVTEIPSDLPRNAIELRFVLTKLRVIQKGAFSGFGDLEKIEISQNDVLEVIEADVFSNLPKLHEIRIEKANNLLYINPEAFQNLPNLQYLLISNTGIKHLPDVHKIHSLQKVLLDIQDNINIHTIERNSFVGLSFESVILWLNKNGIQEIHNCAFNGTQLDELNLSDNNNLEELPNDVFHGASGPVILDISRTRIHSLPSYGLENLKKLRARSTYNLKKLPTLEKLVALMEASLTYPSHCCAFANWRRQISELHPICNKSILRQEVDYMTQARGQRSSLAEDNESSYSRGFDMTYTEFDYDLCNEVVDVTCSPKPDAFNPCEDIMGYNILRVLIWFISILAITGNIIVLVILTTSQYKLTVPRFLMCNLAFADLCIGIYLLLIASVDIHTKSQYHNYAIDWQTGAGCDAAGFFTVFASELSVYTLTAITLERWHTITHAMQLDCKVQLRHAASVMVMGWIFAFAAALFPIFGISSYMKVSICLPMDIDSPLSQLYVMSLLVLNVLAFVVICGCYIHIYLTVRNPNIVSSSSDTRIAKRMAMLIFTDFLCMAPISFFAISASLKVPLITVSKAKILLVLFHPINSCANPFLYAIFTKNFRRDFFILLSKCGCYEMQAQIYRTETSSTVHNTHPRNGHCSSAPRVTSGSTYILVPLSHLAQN
T1 sequence (P01215 25-116 partner): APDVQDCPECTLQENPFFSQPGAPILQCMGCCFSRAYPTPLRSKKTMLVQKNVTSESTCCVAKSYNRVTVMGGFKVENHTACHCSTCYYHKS
T1 sequence (P01225 19-129 partner): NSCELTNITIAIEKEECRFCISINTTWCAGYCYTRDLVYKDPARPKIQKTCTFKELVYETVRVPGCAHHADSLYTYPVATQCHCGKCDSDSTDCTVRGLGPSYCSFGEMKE

For `Cc1cc(C(=O)Nc2cc(C(=O)NCCCN3CCCC3=O)ccc2N2CCN(c3ccccc3C)CC2)c(C(F)(F)F)o1` [Compound 1], which EC50 is on record?
Its EC50 is 0.1 to 1 µM.

With `Cc1ccccc1N1CCN(c2ccc(C(=O)NCCCN3CCCC3=O)cc2NC(=O)c2sccc2Br)CC1` [Compound 4] as the compound, how does the EC50 read?
The EC50 was 1 to 10 µM.

With `Cc1ccccc1N1CCN(c2ccc(C(=O)NCCCN3CCCC3=O)cc2NC(=O)c2occc2Br)CC1` [Compound 7] as the compound, how does the EC50 read?
The EC50 was 1 to 10 µM.

With `Cc1ccccc1N1CCN(c2ccc(C(=O)NCCc3c[nH]c4ccccc34)cc2NC(=O)c2ccco2)CC1` [Compound 10, Furan-2-carboxylic acid [5-[2-(1H-indol-3-yl)-ethylcarbamoyl]-2-(4-o-tolyl-piperazin-1-yl)-phenyl]-amide] as the compound, how does the activation at 5 µM read?
Its activation at 5 µM is 39%.

With `Cc1ccccc1N1CCN(c2ccc(C(=O)N[C@@H](C)c3ccccc3)cc2NC(=O)c2ccco2)CC1` [Compound 11, furan-2-carboxylic acid [5-((S)-1-phenyl-ethylcarbamoyl)-2-(4-o-tolyl-piperazin-1-yl)-phenyl]-amide] as the compound, how does the EC50 read?
The EC50 was 0.1 to 1 µM.

How did the activation at 5 µM turn out when `Cc1ccccc1N1CCN(c2ccc(C(=O)N3CCN(C(=O)OC(C)(C)C)CC3)cc2NC(=O)c2ccco2)CC1` [Compound 12] was run?
Its activation at 5 µM is 7%.

With `Cc1ccccc1N1CCN(c2ccc(C(=O)NCCCN3CCCC3=O)cc2NC(=O)c2ccc(-c3ccccc3)o2)CC1` [Compound 13] as the compound, how does the activation at 5 µM read?
Its activation at 5 µM is 14%.

`Cc1cc(C(=O)Nc2cc(C(=O)NCCCN3CCCC3=O)ccc2N2CCN(c3ccccc3C)CC2)c(C)o1` [Compound 14] was tested. Which EC50 did it give?
The EC50 was 0.1 to 1 µM.

`COc1ccc(CNC(=O)c2ccc(N3CCN(c4ccccc4C)CC3)c(NC(=O)c3ccco3)c2)cc1OC` [Compound 17] was tested. Which EC50 did it give?
The EC50 was 0.1 to 1 µM.

How did the EC50 turn out when `Cc1ccccc1N1CCN(c2ccc(C(=O)NCCCN3CCCC3=O)cc2NC(=O)c2ccccc2Cl)CC1` [Compound 19] was run?
The EC50 was 1 to 10 µM.

Which EC50 does the source give for `Cc1ccccc1N1CCN(c2ccc(C(=O)NCCCN3CCCC3=O)cc2NC(=O)c2cccs2)CC1` [Compound 20] here?
The EC50 was 0.1 to 1 µM.

For `Cc1ccccc1N1CCN(c2ccc(C(=O)N[C@@H]3CCCN(C(=O)OC(C)(C)C)C3)cc2NC(=O)c2ccco2)CC1` [Compound 21], which activation at 5 µM is on record?
The activation at 5 µM was 22%.

With `Cc1ccccc1N1CCN(c2ccc(C(=O)N[C@@H]3CCCNC3)cc2NC(=O)c2ccco2)CC1` [Compound 22] as the compound, how does the EC50 read?
Its EC50 is 1 to 10 µM.

Which activation at 5 µM does the source give for `CC(=O)N1CCN(C(=O)c2ccc(N3CCN(c4ccccc4C)CC3)c(NC(=O)c3ccco3)c2)CC1` [Compound 23] here?
The activation at 5 µM was 4%.

Which EC50 does the source give for `Cc1ccccc1N1CCN(c2ccc(C(=O)NCCCN3CCCC3=O)cc2NC(=O)c2ccc[nH]2)CC1` [Compound 24] here?
Its EC50 is 1 to 10 µM.

For `Cc1ccccc1N1CCN(c2ccc(C(=O)NCCCN3CCCC3=O)cc2NC(=O)c2cnc(Br)s2)CC1` [Compound 25], which EC50 is on record?
Its EC50 is 1 to 10 µM.

How did the EC50 turn out when `Cc1ccccc1N1CCN(c2ccc(C(=O)NCCCN3CCCC3=O)cc2NC(=O)CC(C)C)CC1` [Compound 26] was run?
Its EC50 is 1 to 10 µM.

Which EC50 does the source give for `Cc1ccccc1N1CCN(c2ccc(C(=O)NCCCN3CCCC3=O)cc2NC(=O)c2cccc(Cl)c2)CC1` [Compound 28] here?
The EC50 was 1 to 10 µM.

`Cc1ccccc1N1CCN(c2ccc(C(=O)NCCCN3CCCC3=O)cc2NC(=O)c2ccc(Cl)cc2)CC1` [Compound 29] was tested. Which EC50 did it give?
Its EC50 is 0.1 to 1 µM.

Which EC50 does the source give for `Cc1ccccc1N1CCN(c2ccc(C(=O)NCCCN3CCCC3=O)cc2NC(=O)c2cccc(F)c2)CC1` [Compound 30] here?
The EC50 was 1 to 10 µM.

For `Cc1ccccc1N1CCN(c2ccc(C(=O)NCCCN3CCCC3=O)cc2NC(=O)c2ccc(C#N)cc2)CC1` [Compound 33], which EC50 is on record?
The EC50 was 1 to 10 µM.

`Cc1cccc(C(=O)Nc2cc(C(=O)NCCCN3CCCC3=O)ccc2N2CCN(c3ccccc3C)CC2)c1` [Compound 34] was tested. Which EC50 did it give?
The EC50 was 1 to 10 µM.

How did the activation at 5 µM turn out when `Cc1ccccc1N1CCN(c2ccc(C(=O)NCCCN3CCCC3=O)cc2NC(=O)c2cccnc2)CC1` [Compound 37] was run?
Its activation at 5 µM is 37%.

`Cc1ccccc1N1CCN(c2ccc(C(=O)NCCCN3CCCC3=O)cc2NC(=O)c2cccc(C(F)(F)F)c2)CC1` [Compound 39] was tested. Which activation at 5 µM did it give?
The activation at 5 µM was 15%.

Which activation at 5 µM does the source give for `Cc1ccccc1N1CCN(c2ccc(C(=O)NCCCN3CCCC3=O)cc2NC(=O)c2ccc(C(F)(F)F)cc2)CC1` [Compound 40] here?
The activation at 5 µM was 40%.

For `COc1ccccc1C(=O)Nc1cc(C(=O)NCCCN2CCCC2=O)ccc1N1CCN(c2ccccc2C)CC1` [Compound 41], which EC50 is on record?
The EC50 was 1 to 10 µM.

For `COc1ccc(C(=O)Nc2cc(C(=O)NCCCN3CCCC3=O)ccc2N2CCN(c3ccccc3C)CC2)cc1` [Compound 42], which EC50 is on record?
The EC50 was 0.1 to 1 µM.

Which activation at 5 µM does the source give for `Cc1ccccc1N1CCN(c2ccc(C(=O)NCCCN3CCCC3=O)cc2NC(=O)c2ccc3ccccc3c2)CC1` [Compound 43] here?
The activation at 5 µM was 44%.

`Cc1ccccc1N1CCN(c2ccc(C(=O)NCCCN3CCCC3=O)cc2NC(=O)c2cccc3cccnc23)CC1` [Compound 44] was tested. Which activation at 5 µM did it give?
The activation at 5 µM was 44%.

How did the activation at 5 µM turn out when `Cc1ccccc1N1CCN(c2ccc(C(=O)NCCCN3CCCC3=O)cc2NS(=O)(=O)c2ccco2)CC1` [Compound 46] was run?
The activation at 5 µM was 10%.

Which EC50 does the source give for `CCNC(=O)N1CCC[C@@H](NC(=O)c2ccc(N3CCN(c4ccccc4C)CC3)c(NC(=O)c3ccco3)c2)C1` [Compound 48, (R)-3-[3-[(furan-2-carbonyl)-amino]-4-(4-o-tolyl-piperazin-1-yl)-benzoylamino]-piperidine-1-carboxylic acid ethylamide] here?
The EC50 was 1 to 10 µM.

Which EC50 does the source give for `Cc1ccccc1N1CCN(c2ccc(C(=O)NC3CCN(C(=O)OC(C)(C)C)CC3)cc2NC(=O)c2ccco2)CC1` [Compound 49, 4-[3-[(Furan-2-carbonyl)-amino]-4-(4-o-tolyl-piperazin-1-yl)-benzoylamino]-piperidine-1-carboxylic acid tert-butyl ester] here?
Its EC50 is 0.1 to 1 µM.

With `Cc1cc(C)c(C(=O)Nc2cc(C(=O)NCCCN3CCCC3=O)ccc2N2CCN(c3ccccc3C)CC2)o1` [Compound 51] as the compound, how does the activation at 5 µM read?
The activation at 5 µM was 39%.

With `CNC[C@@H](NC(=O)c1ccc(N2CCN(c3ccccc3C)CC2)c(NC(=O)c2ccco2)c1)c1ccc(Cl)cc1` [Compound 55, Furan-2-carboxylic acid [5-[(S)-1-(4-chloro-phenyl)-2-methylamino-ethylcarbamoyl]-2-(4-o-tolyl-piperazin-1-yl)-phenyl]-amide] as the compound, how does the EC50 read?
The EC50 was 1 to 10 µM.

For `CC(=O)N1CCC(NC(=O)c2ccc(N3CCN(c4ccccc4C)CC3)c(NC(=O)c3ccco3)c2)CC1` [Compound 56, Furan-2-carboxylic acid [5-(1-acetyl-piperidin-4-ylcarbamoyl)-2-(4-o-tolyl-piperazin-1-yl)-phenyl]-amide], which EC50 is on record?
Its EC50 is 1 to 10 µM.

For `CC(=O)N(C)C[C@@H](NC(=O)c1ccc(N2CCN(c3ccccc3C)CC2)c(NC(=O)c2ccco2)c1)c1ccc(Cl)cc1` [Compound 57], which EC50 is on record?
The EC50 was 1 to 10 µM.

How did the EC50 turn out when `COc1ccc(C(=O)Nc2cc(C(=O)NCCCN3CCCC3=O)ccc2N2CCN(c3ccccc3C)CC2)c(OC)c1` [Compound 59] was run?
Its EC50 is 1 to 10 µM.

How did the activation at 5 µM turn out when `CCOC(=O)N1CCN(c2ccc(C(=O)NCCCN3CCCC3=O)cc2NC(=O)c2ccco2)CC1` [Compound 62, 4-{2-[(Furan-2-carbonyl)-amino]-4-[3-(2-oxo-pyrrolidin-1-yl)-propylcarbamoyl]-phenyl}-piperazine-1-carboxylic acid ethyl ester] was run?
The activation at 5 µM was 42%.

`Cc1ccccc1N1CCN(c2ccc(C(=O)NCCN(C)C(=O)OC(C)(C)C)cc2NC(=O)c2ccco2)CC1` [Compound 64, {2-[3-[(Furan-2-carbonyl)-amino]-4-(4-o-tolyl-piperazin-1-yl)-benzoylamino]-ethyl}-methyl-carbamic acid tert-butyl ester] was tested. Which activation at 5 µM did it give?
Its activation at 5 µM is 72%.

Which EC50 does the source give for `CCOc1cc(CCNC(=O)c2ccc(N3CCN(c4ccccc4C)CC3)c(NC(=O)c3ccco3)c2)ccc1OC` [Compound 65] here?
Its EC50 is 1 to 10 µM.

How did the EC50 turn out when `Cc1ccccc1N1CCN(c2ccc(C(=O)N[C@H](CO)c3ccccc3)cc2NC(=O)c2ccco2)CC1` [Compound 67, Furan-2-carboxylic acid [5-((S)-2-hydroxy-1-phenyl-ethylcarbamoyl)-2-(4-o-tolyl-piperazin-1-yl)-phenyl]-amide] was run?
The EC50 was 0.1 to 1 µM.

`Cc1ccccc1N1CCN(c2ccc(C(=O)NCCCN3CCCC3=O)cc2NC(=O)c2ccoc2C)CC1` [Compound 68] was tested. Which EC50 did it give?
Its EC50 is 1 to 10 µM.

With `Cc1ccccc1N1CCN(c2ccc(C(=O)NCCCN3CCCC3=O)cc2NC(=O)c2ccsc2)CC1` [Compound 69] as the compound, how does the EC50 read?
The EC50 was 0.1 to 1 µM.

How did the EC50 turn out when `Cc1ccccc1N1CCN(c2ccc(C(=O)NCCCN3CCCC3=O)cc2NC(=O)c2scnc2C)CC1` [Compound 70] was run?
Its EC50 is greater than 10 µM.

With `Cc1nc(C(F)(F)F)c(C(=O)Nc2cc(C(=O)NCCCN3CCCC3=O)ccc2N2CCN(c3ccccc3C)CC2)s1` [Compound 71] as the compound, how does the EC50 read?
The EC50 was 1 to 10 µM.

For `Cc1ccccc1N1CCN(c2ccc(C(=O)NCCCN3CCCC3=O)cc2NC(=O)c2sc(Br)nc2C)CC1` [Compound 72], which EC50 is on record?
Its EC50 is greater than 10 µM.

Which EC50 does the source give for `Cc1nc(C(=O)Nc2cc(C(=O)NCCCN3CCCC3=O)ccc2N2CCN(c3ccccc3C)CC2)c(C(F)(F)F)o1` [Compound 76] here?
Its EC50 is 1 to 10 µM.

`CCc1ocnc1C(=O)Nc1cc(C(=O)NCCCN2CCCC2=O)ccc1N1CCN(c2ccccc2C)CC1` [Compound 77] was tested. Which EC50 did it give?
Its EC50 is 1 to 10 µM.

For `Cc1ccccc1N1CCN(c2ccc(C(=O)NCCCN3CCCC3=O)cc2NC(=O)c2ncoc2C)CC1` [Compound 78], which EC50 is on record?
The EC50 was 0.1 to 1 µM.

For `Cc1ccccc1N1CCN(c2ccc(C(=O)NCCCN3CCCC3=O)cc2NC(=O)c2conc2C)CC1` [Compound 80], which activation at 5 µM is on record?
The activation at 5 µM was 22%.
